According to US20160106711A1, “3-3-Di-Substituted-Oxindoles as Inhibitors of Translation Initiation” (President and Fellows of Harvard College, priority 2012, published 2016):

What was measured:
CRL-2813 = experiment: Cell growth assay (sulforhodamine B), CRL-2813 cells; assay type: cell-based, human; details: 5 days, SRB
How it was run: (§1)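 Cells were exposed for 5 days to 0.54-6 µM compound, then TCA-fixed and stained with sulforhodamine B, read at 490 nm. Growth was expressed as %T/C with time-zero correction. IC50 is the concentration giving 50% growth inhibition.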

CRL-2351 = experiment: Cell growth assay (sulforhodamine B), CRL-2351 cells; assay type: cell-based, human; details: 5 days, SRB
How it was run: as §1

CHOP mRNA [1] = experiment: Real time PCR of CHOP mRNA expression, KLN cells; assay type: cell-based, mouse; details: for CHOP PCR (μM) KLN / fold induction at 20 µM: at 20 uM
Method: (§2) In order to validate the compounds described herein as modifiers of the abundance of the eIF2•GTP•Met-tRNAi ternary complex, the effects of the compounds on endogenous cellular markers of the ternary complex were determined. For example, reducing amount of the ternary complex increases translation of ATF-4, which results in elevated expression of CHOP mRNA and protein. Therefore, expression of endogenous CHOP mRNA and CHOP protein in KLN-tTA/pBISA-DL^(ATF-4) cells were utilized as secondary assays to validate the compounds as modifiers of the eIF2•GTP•Met-tRNAi ternary complex.
(§3) Total RNA was extracted with TaqMan Gene Expression Cells-to-Ct™ Kit (Applied Biosystems, Branchburg, N.J.) and DNAse I treated according to manufacturer's recommendations. 1-Step Real-time PCR was performed on a Bio-Rad iCycler IQ5 system by using B-R 1-Step SYBR Green qRT-PCR Kit (Quanta BioSciences, Gaithersburg, Md.) according to manufacturer's specifications. The thermal cycler conditions were as follows: 10 minutes at 50° C., hold for 5 minutes at 95° C., followed by 2-step PCR for 45 cycles of 95° C. for 15 seconds followed by 60° C. for 30 seconds. All PCRs were performed in triplicate in at least two independent PCR runs. Mean values of these repeated measurements were used for calculation. To calibrate the results, all the transcript quantities were normalized to 18S rRNA (18S ribosomal RNA-like mRNA in mouse). The following primers were used in real-time PCR reactions.
The effects of these compounds on the ternary complex assay and the expression of CHOP mRNA was assayed in adherent mouse (KLN) and human solid tumors cells (CRL-2351 and CRL-2813).

[2] = system: eIF2•GTP•Met-tRNAi ternary complex; experiment: Ternary complex assay (ATF-4 assay), dual luciferase firefly/renilla ratio; assay type: cell-based, mouse; details: for maximal fold induction at 40 µM: read-out: ATF-4 Xmax @ 40 μM
How it was run: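 Stable KLN cancer cells expressing tTA carry a bidirectional reporter in which firefly luciferase sits behind the ATF-4 5′UTR and renilla luciferase behind a plasmid-derived 5′UTR only. Lysates were read by Dual-Glo luciferase assay, and the output is the firefly/renilla signal ratio.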

KLN = experiment: Cell growth assay (sulforhodamine B), KLN cells; assay type: cell-based, mouse; details: 5 days, SRB
CHOP mRNA [3] = experiment: Real time PCR of CHOP mRNA expression, CRL-2351 cells; assay type: cell-based, human
Method: as §2
as §3, with “Mean values of these repeated measurements were used for calculation.” left out, “The following primers were used in real-time PCR reactions.” left out

[4] = Mus musculus, read-out: ATF-4 Xmax

SMILES	IC50 (CRL-2813; Homo sapiens, CRL2813, 120 h)	IC50 (CRL-2351; Homo sapiens, 120 h)	fold induction at 40 µM (CHOP mRNA [1]; Mus musculus)	maximal fold induction at 80 µM [2, 4]	maximal fold induction at 40 µM ([2]; Mus musculus, at 40 uM)	IC50 (KLN; Mus musculus, 120 h)	also measured
CN(C)CCN1C(=O)C(c2cc(C(C)(C)C)ccc2CCCN2CCCC2)(c2cc(C(C)(C)C)ccc2OCCN2CCCC2)c2ccccc21 (stereo not shown) [HY198]	–	–	–	–	–	–	IC50 (CRL-2813): 0.8 ± 0.1 µM; IC50 (CRL-2351): 0.2 ± 0.05 µM; CHOP PCR (μM) KLN (CHOP mRNA [1]): 3.76 at; ATF-4 Xmax ([2]; 2.5 uM): 11.82 ± 0.11/2.5 uM; IC50 (KLN): 0.3 ± 0.1 µM
CC(C)(C)c1ccc(O)c(C2(c3cc(C(C)(C)C)ccc3OCCN3CCOCC3)C(=O)N(CCN3CCOCC3)c3ccccc32)c1 (stereo not shown) [HY305]	2 µM	3.6 ± 0.7 µM	10	31.9 ± 9.27	3.61 ± 0.47	5 µM	–
COCCOc1ccc(C(C)(C)C)cc1C1(c2cc(C(C)(C)C)ccc2O)C(=O)Nc2ccccc21 (stereo not shown) [HY081]	0.9 ± 0.1 µM	3.9 ± 2 µM	1.78	–	1.21 ± 0.16	> 20 µM	–
O=C1Nc2ccccc2C1(c1cc(Cl)ccc1O)c1cc(Cl)ccc1O [HY033, 3,3-Bis(5-Chloro-2-Hydroxyphenyl)Indolin-2-One]	4.2 ± 0.2 µM	6.8 ± 0.8 µM	–	–	6.14 ± 0.63	15.2 ± 1.6 µM	CHOP PCR (μM) 2351 (CHOP mRNA [3]; CRL-2351, 20 uM): 7.8/20 uM; CHOP PCR (μM) 2351 (CHOP mRNA [3]; CRL-2351, 40 uM): 18.5/40 uM
CC(C)(C)c1ccc(OCCN2CCCC2)c(C2(c3cc(C(C)(C)C)ccc3OCCN3CCCC3)C(=O)Nc3ccccc32)c1 [HY191]	0.8 ± 0.1 µM	0.65 ± 0.1 µM	–	–	–	3.5 ± 1.2 µM	fold induction at 5 µM (CHOP mRNA [1]; Mus musculus, at 5 uM): 8.5; maximal fold induction at 5 µM ([2]; Mus musculus, cell prints 5 (uM), read-out: ATF-4 Xmax): 13.9 ± 0.97
O=C1Nc2ccccc2C1(c1cc(C2CCCC2)ccc1O)c1cc(C2CCCC2)ccc1O [HY051, 3,3-Bis(5-Cyclopentyl-2-Hydroxyphenyl)Indolin-2-One]	3.1 ± 0.2 µM	5.3 ± 2.4 µM	–	–	–	> 20 µM	fold induction at 20 µM (CHOP mRNA [1]; Mus musculus): 13.8; maximal fold induction at 20 µM [2, 4]: 5.48 ± 0.3
CC(C)(C)c1ccc(O)c(C2(c3cc(C(C)(C)C)ccc3OCCBr)C(=O)N(CCBr)c3ccccc32)c1 (stereo not shown) [HY183]	1.1 ± 0.3 µM	2.9 ± 1.2 µM	–	1.9 ± 0.03	–	> 20 µM	fold induction at 80 µM (CHOP mRNA [1]; Mus musculus): 1.83
CCN(CC)CCOc1ccc(C(C)(C)C)cc1C1(c2cc(C(C)(C)C)ccc2O)C(=O)Nc2ccccc21 (stereo not shown) [HY096]	1.5 ± 0.6 µM	0.6 ± 0.1 µM	–	–	–	0.8 ± 0.4 µM	fold induction at 20 µM (CHOP mRNA [1]; Mus musculus): 12.4; maximal fold induction at 20 µM [2, 4]: 16.7 ± 3.24
COc1ccc(C(C)C)cc1C1(c2cc(C(C)C)ccc2OC)C(=O)Nc2ccccc21 [HY061]	2.8 ± 0.2 µM	3 µM	4.23	2.9 ± 1.21	–	11 ± 0.4 µM	fold induction at 80 µM (CHOP mRNA [1]; Mus musculus): 12.3
CC(C)(C)c1ccc(O)c(C2(c3cc(C(C)(C)C)ccc3O)C(=O)N(CCN3CCOCC3)c3ccccc32)c1 [HY304]	1.6 ± 0.2 µM	2.2 ± 0.2 µM	9.1	–	4.31 ± 0.1	17.5 ± 1.3 µM	–
CCN(CCO)CCOc1ccc(C(C)(C)C)cc1C1(c2cc(C(C)(C)C)ccc2OCCN2CCOCC2)C(=O)N(CCN(C)C)c2ccccc21 (stereo not shown) [HY306]	–	–	–	–	–	–	IC50 (CRL-2813): 2.7 ± 0.8 µM; IC50 (CRL-2351): 2.3 ± 0.6 µM; CHOP PCR (μM) KLN (CHOP mRNA [1]): 8.11 at; ATF-4 Xmax @ 40 μM ([2]; at 40 uM): 19.2 ± 11.2 at 40 uM; IC50 (KLN): 2.3 ± 1.6 µM
CN1CCN(CCOc2ccc(C(C)(C)C)cc2C2(c3cc(C(C)(C)C)ccc3OCCN3CCN(C)CC3)C(=O)N(CCN3CCNCC3)c3ccccc32)CC1 [HY313]	> 20 µM	0.6 ± 0.1 µM	–	–	–	9.3 ± 3.2 µM	fold induction at 10 µM (CHOP mRNA [1]; Mus musculus, at 10 (uM)): 6.73
COCCOc1ccc(C(C)(C)C)cc1C1(c2cc(C(C)(C)C)ccc2OCCOC)C(=O)Nc2ccccc21 [HY181]	0.9 ± 0.1 µM	3.9 ± 2 µM	–	1.58 ± 0.07	–	> 20 µM	fold induction at 80 µM (CHOP mRNA [1]; Mus musculus): 1.1
